In patent publication US20080063628A1, “METHODS TO PROMOTE CELL DIFFERENTIATION” (priority 2006, published 2008):

What was measured:
Test in all cases: 6 hour trichostatin A treatment, gene expression by RT-PCR (Example 10)
Format in all cases: cell-based, human
[1] = test system: late passage (P11) pancreatic-derived stromal cell line; details: for HNF-3 beta gene expression / Insulin gene expression / Pdx-1 gene expression / glucagon gene expression: 5 μM for 6 h then removed
Experimental: (§1) Amniotic fluid derived cells or pancreas-derived cells were seeded into 24-well tissue culture plates at a density of 5000/cm^2 and cultured in AMNIOMAX (Invitrogen) or DMEM with 10% FBS respectively under standard cell culture conditions until confluency was reached. Upon reaching confluency, amniotic fluid derived cells were treated with 1.25 μM trichostatin A and pancreas-derived stromal cells were treated with 5.0 μM trichostatin A. The media was changed 6 hours following the addition of trichostatin A and cultures were maintained for the remainder of the experiment. Several cell lines obtained from amniotic fluid (see Example 14) and pancreas (see Example 13) were tested.
(§2) RNA samples were obtained at the time the trichostatin A was removed and 24 hours from the start of the experiment. The culture media was removed and cells were washed with PBS then collected in RLT Lysis Buffer with β-mercaptoethanol (Qiagen). RNA was purified using the RNeasy Mini Kit (Qiagen) and RNA quantity and quality was determined using a spectrophotometer. cDNA was made using the iScript cDNA synthesis kit (BioRad). Human pancreas cDNA was included as a control. Results were normalized against GAPDH expression levels.
(§3) The expression levels of Sox17, HNF-3 beta, Pdx-1, Insulin, and Gata-1 were analyzed in amniotic-derived cells while the expression levels of glucagon, insulin, PDX-1 and HNF-3 beta were analyzed in pancreas-derived cells. 20 ng of cDNA was used in each RT-PCR reaction, which was performed on the Applied Biosystems 7500, according to the methods described in Example 15. Data was analyzed using the accompanying software.
(§4) Real-time PCR amplifcation and quantitative analysis. Unless otherwise stated, all reagents were purchased from Applied Biosystems. Real-time PCR reactions were performed using the ABI PRISM™ 7500 Sequence Detection System. TAQMAN™ FAST UNIVERSAL PCR MASTER MIX™ (ABI, CA) was used with 20 ng of reverse transcribed RNA in a total reaction volume of 20 μl. Each cDNA sample was run in duplicate to allow correction of pipetting errors. Primers and FAM-labeled TAQMAN™ probes were used at concentrations of 200 nM. The level of expression for each target gene was normalized using the pre-developed Applied Biosystem's human glyceraldehyde-3-phosphate dehydrogenase (GAPDH) endogenous control kit. Primers and probes were designed using either ABI PRISM PRIMER EXPRESS™ software or a pre-developed ABI gene analysis kit. For each gene, either one of the primers or the probe were designed to be exon-boundary spanning. This eliminated the possibility of the primers/probe binding to any genomic DNA present. The primer and probe sets are listed as follows: Pdx-1 (Hs00426216), Insulin (Hs00355773), glucagon (Hs00174967), and FoxA2 (HNF 3-beta) (Hs00232764). The remaining primers were designed using the PRIMERS program (ABI, CA). After an initial 95° C. incubation for 20 sec, samples were cycled 40 times in two stages: a denaturation step at 95° C. for 3 sec, followed by an annealing/extension step at 60° C. for 30 sec.
(§5) For each primer/probe set, a cycle time value was determined as the cycle number at which the fluorescence intensity of the PCR reaction reached a specific value in the middle of the exponential region of amplification. An increase in expression of a gene corresponded to a decrease in the number of cycles required for the fluorescence intensity to reach this value.

[2] = test system: early passage (P5) pancreatic-derived stromal cell line; details: for HNF-3 beta gene expression / Insulin gene expression / Pdx-1 gene expression / glucagon gene expression: 5 μM for 6 h then removed
Experimental: as §1, §2, §3, §4, §5

[3] = test system: second amniotic fluid-derived cell line; details: for Gata1 gene expression / HNF-3 beta gene expression / Insulin gene expression / Pdx-1 gene expression / sox17 gene expression: 1.25 μM for 6 h then removed
Experimental: as §1, §2, §3, §4, §5

[4] = test system: amniotic fluid-derived cell line; details: for Gata1 gene expression / HNF-3 beta gene expression / Insulin gene expression / Pdx-1 gene expression / sox17 gene expression: 1.25 μM for 6 h then removed
Experimental: as §1, §2, §3, §4, §5

[5] = 5.0 μM, following 6 h treatment

SMILES: CC(/C=C/C(=O)NO)=C\[C@@H](C)C(=O)c1ccc(N(C)C)cc1 [trichostatin A]
- HNF-3 beta gene expression ([1]; 6 hrs): + (detectable between 35 and 40 cycles by RT-PCR)
- Insulin gene expression ([1]; 6 hrs): nd (not detectable at >40 cycles by RT-PCR)
- Pdx-1 gene expression ([1]; 6 hrs): + (detectable between 35 and 40 cycles by RT-PCR)
- glucagon gene expression ([1]; 6 hrs): + (detectable between 35 and 40 cycles by RT-PCR)
- HNF-3 beta gene expression ([1]; 24 hrs): nd (not detectable at >40 cycles by RT-PCR)
- Insulin gene expression ([1]; 24 hrs): nd (not detectable at >40 cycles by RT-PCR)
- Pdx-1 gene expression ([1]; 24 hrs): nd (not detectable at >40 cycles by RT-PCR)
- glucagon gene expression ([1]; 24 hrs): + (detectable between 35 and 40 cycles by RT-PCR)
- HNF-3 beta RT-PCR detection cycle [1, 5]: 36 cycles
- Pdx-1 RT-PCR detection cycle [1, 5]: 37 cycles
- glucagon RT-PCR detection cycle [1, 5]: 37 cycles
- glucagon RT-PCR detection cycle ([1]; 5.0 μM, following the removal): 35 cycles
- HNF-3 beta gene expression ([2]; 6 hrs): +++ (detectable at less than 35 cycles by RT-PCR with SE less than 0.9)
- Insulin gene expression ([2]; 6 hrs): nd (not detectable at >40 cycles by RT-PCR)
- Pdx-1 gene expression ([2]; 6 hrs): + (detectable between 35 and 40 cycles by RT-PCR)
- glucagon gene expression ([2]; 6 hrs): + (detectable between 35 and 40 cycles by RT-PCR)
- HNF-3 beta gene expression ([2]; 24 hrs): nd (not detectable at >40 cycles by RT-PCR)
- Insulin gene expression ([2]; 24 hrs): +++ (detectable at less than 35 cycles by RT-PCR with SE less than 0.9)
- Pdx-1 gene expression ([2]; 24 hrs): nd (not detectable at >40 cycles by RT-PCR)
- glucagon gene expression ([2]; 24 hrs): + (detectable between 35 and 40 cycles by RT-PCR)
- Insulin RT-PCR detection cycle ([2]; 5.0 μM, after trichostatin A was removed from the media): 32 cycles
- HNF-3 beta RT-PCR detection cycle [2, 5]: 35 cycles
- glucagon RT-PCR detection cycle [2, 5]: 37 cycles
- Pdx-1 RT-PCR detection cycle ([2]; 5.0 μM, following treatment (38 before treatment)): 35 cycles
- Gata1 gene expression ([3]; 6 hrs): nd (not detectable at >40 cycles by RT-PCR)
- HNF-3 beta gene expression ([3]; 6 hrs): +++ (detectable at less than 35 cycles by RT-PCR with SE less than 0.9)
- Insulin gene expression ([3]; 6 hrs): nd (not detectable at >40 cycles by RT-PCR)
- Pdx-1 gene expression ([3]; 6 hrs): +++ (detectable at less than 35 cycles by RT-PCR with SE less than 0.9)
- sox17 gene expression ([3]; 6 hrs): +++ (detectable at less than 35 cycles by RT-PCR with SE less than 0.9)
- Gata1 gene expression ([3]; 24 hrs): nd (not detectable at >40 cycles by RT-PCR)
- HNF-3 beta gene expression ([3]; 24 hrs): + (detectable between 35 and 40 cycles by RT-PCR)
- Insulin gene expression ([3]; 24 hrs): nd (not detectable at >40 cycles by RT-PCR)
- Pdx-1 gene expression ([3]; 24 hrs): nd (not detectable at >40 cycles by RT-PCR)
- sox17 gene expression ([3]; 24 hrs): +++ (detectable at less than 35 cycles by RT-PCR with SE less than 0.9)
- HNF-3 beta RT-PCR detection cycle ([3]; 1.25 μM, 6 hours of treatment): 31 cycles
- Pdx-1 RT-PCR detection cycle ([3]; 1.25 μM, 6 hours of treatment): 35 cycles
- HNF-3 beta RT-PCR detection cycle ([3]; 1.25 μM, following removal): 35 cycles
- Gata1 gene expression ([4]; 6 hrs): nd (not detectable at >40 cycles by RT-PCR)
- HNF-3 beta gene expression ([4]; 6 hrs): +++ (detectable at less than 35 cycles by RT-PCR with SE less than 0.9)
- Insulin gene expression ([4]; 6 hrs): nd (not detectable at >40 cycles by RT-PCR)
- Pdx-1 gene expression ([4]; 6 hrs): + (detectable between 35 and 40 cycles by RT-PCR)
- sox17 gene expression ([4]; 6 hrs): +++ (detectable at less than 35 cycles by RT-PCR with SE less than 0.9)
- Gata1 gene expression ([4]; 24 hrs): nd (not detectable at >40 cycles by RT-PCR)
- HNF-3 beta gene expression ([4]; 24 hrs): +++ (detectable at less than 35 cycles by RT-PCR with SE less than 0.9)
- Insulin gene expression ([4]; 24 hrs): nd (not detectable at >40 cycles by RT-PCR)
- Pdx-1 gene expression ([4]; 24 hrs): nd (not detectable at >40 cycles by RT-PCR)
- sox17 gene expression ([4]; 24 hrs): +++ (detectable at less than 35 cycles by RT-PCR with SE less than 0.9)
- Pdx-1 RT-PCR detection cycle ([4]; 1.25 μM, after treatment (37 before treatment)): 35 cycles
- HNF-3 beta RT-PCR detection cycle ([4]; 1.25 μM, following 6 h treatment): 32 cycles
- HNF-3 beta RT-PCR detection cycle ([4]; 1.25 μM, following the wash): 35 cycles
